Earlier results in patent publication US7705146B2, “Hepatitis C inhibitor peptide analogs” (Boehringer Ingelheim International GmbH, priority 2004, dated 2010).

Test system: hepatitis C virus
Details: two day clinical trial, patients infected with the hepatitis C virus

## COc1ccc2c(O[C@@H]3C[C@H]4C(=O)N[C@]5(C(=O)O)C[C@H]5/C=C\CCCCC[C@H](NC(=O)OC5CCCC5)C(=O)N4C3)cc(-c3csc(NC(C)C)n3)nc2c1 [BILN 2061]
  reduction of viral loads in patients: effective in rapidly reducing viral loads
